# Experimental data: patent US11779546B2, “Disassembly of cholesterol crystals” (IP SCIENCE LIMITED, priority 2018, dated 2023)
# “Also recorded” adds a separate entry of the source.
# Experiments:
# [1] = Disassembly of cholesterol crystals in the arterial wall (pieces of atherosclerotic abdominal aorta incubated 13 days); design: species or system human; details: 1 μg/ml lycopene in ethanol diluted by PBS 10 fold, room temperature
# From the text: It was important to confirm whether carotenoids, and lycopene in particular, can affect folding of cholesterol crystals, which are not just synthesized by a manufacturer, but produced naturally, and particularly those, which are developed during pathological process in human. For this purpose, we used pieces of atherosclerotic abdominal aorta, which were obtained during a combined vascular graft and by-pass surgery.
# (§1) This was in terms of their stage of development, with prominently featured cholesterol crystals of similar size, embedded into the atheromatous tissues of the aorta wall. As a control material we collected pieces of the atherosclerotic abdominal aorta containing calcium phosphate crystals.
# (§2) Firstly, an ethanol solution 1 μg/ml of lycopene was prepared. It was then diluted by PBS 10 fold. As a control, a solution was made with the same ratio ethanol to PBS but without lycopene. Then pieces of aorta were incubated, in light protected containers at the room temperature of about […] for 13 days.
# [2] = Changes of physical properties of cholesterol crystals formed in presence of lycopene; assay type: physicochemical
# From the text: In a range of experiments where ratio of cholesterol to lycopene varied, from 1,000 to at least 10,000,000 molecules of the former to 1 molecule of the latter, noticeable changes in the physical properties of crystals were observed.
# In all control experiments, cholesterol crystallised into a plate-like crystals, see FIG. 2B and FIG. 2D. Sometimes they could create a thick flat plate of few centimetres across, like the one on the bottom of the glass in the experiment 2, FIG. 2C. However, when lycopene was present in the medium a formation of a new type of crystals was observed.
# Under the light and confocal microscopy these difference between two types of cholesterol crystals, in size and shape, are more evident (FIGS. 5A-F and 6A-B).
# [3] = Disassembly of crystallised cholesterol (Sigma) in ethanol solutions of test substance; assay type: physicochemical; details: 100 mg crystallised cholesterol; for ratio of carotenoid to cholesterol at which complete disaggregation of the crystals was observed: 20 ml ethanol, 20-22° C., gentle stirring for a couple of minutes; for effect on size or number of the cholesterol crystals: 20 ml ethanol solutions with different concentrations, room temperature
# Description: (§3) To 100 mg of crystallised cholesterol (Sigma) 20 ml of ethanol solutions with different concentrations of lycopene were added. As a control, 20 ml of the same ethanol was used but without any lycopene. After gentle stirring for a couple of minutes, under the room temperature of about 20-22° C., recording of the results was made.
# as §3, with “lutein” for “lycopene”, “lutein.” for “lycopene.”, “at a” for “under the”
# as §3, with “a number of biologically active hydrophobic substances and oils” for “lycopene”, “additives.” for “lycopene.”, “at a” for “under the”, “[…],” for “20-22° C.,”
# [4] = Control: atherosclerotic abdominal aorta pieces containing calcium phosphate crystals incubated with lycopene; design: species or system human; details: lycopene-ethanol-PBS, 13 days, room temperature
# Description: as §1, §2
# [5] = Prevention of or interference into the formation of cholesterol crystals (evaporation of ethanol cholesterol solution); assay type: physicochemical; details: for effect on rate / formation of cholesterol crystallisation: less than one molecule of lycopene per million molecules of cholesterol
# Description: A solution of 198 ml of 1 g of cholesterol (Sigma) in 99% ethanol was divided in two equal parts. In one part 1 ml of ethanol containing […] of the dissolved lycopene was added. This provided ratio of lycopene to cholesterol as 1:10^6. Into the other part, the control, 1 ml of the ethanol itself was added. Then both samples were left in the dark room for evaporation under 20-22° C. Recording of the status of the both samples were made at least on a daily or even shorter intervals.
molecule,measurement,setting,value
CC(C)=CCC/C(C)=C/C=C/C(C)=C/C=C/C(C)=C/C=C/C=C(C)/C=C/C=C(C)/C=C/C=C(\C)CCC=C(C)C [lycopene],size of the remaining crystalloid structures,[1],reduced by at least two-fold
same,size of the surrounding cholesterol-rich atheromatous mass of the lesion,[1],reduced by about two-fold
same,number of crystalloid structures in the lesion at end of incubation,[1]; three structures at start,only two
same,incorporation into newly formed cholesterol crystal structures,[2],able to incorporate into newly formed crystal structures
same,type (size and shape) of cholesterol crystals formed,"[2]; cholesterol to lycopene 1,000 to at least 10,000,000 : 1, controls plate-like crystals",significantly smaller and in a shape of needle- or narrow tube-like crystals; also recorded: needle-like crystals
same,ratio of carotenoid to cholesterol at which complete disaggregation of the crystals was observed,[3],"1 to 100,000"
same,effect on size or shape of calcium phosphate crystals,[4],did not affect size or shape of calcium phosphate crystals
same,effect on rate / formation of cholesterol crystallisation,[5],significantly affect the rate of its crystallisation
same,effect on rate / formation of cholesterol crystallisation,[5]; listed as Lycopene,prevents or slows down formation of cholesterol crystallisation
same,day by which crystallisation was completed,"[5]; lycopene to cholesterol 1:10^6, ethanol evaporation in the dark, 20-22° C., control: 12th day",≤ 14 days
same,day on which floating cholesterol crystals started to appear,"[5]; lycopene to cholesterol 1:10^6, ethanol evaporation in the dark, 20-22° C., control: after two days",6 days
phosphatidylcholine [reference compound],effect on size or number of the cholesterol crystals,[3],not able to affect cholesterol crystals
tocopherol [reference compound],effect on size or number of the cholesterol crystals,[3],ineffective
CC1=C[C@H](O)CC(C)(C)[C@H]1/C=C/C(C)=C/C=C/C(C)=C/C=C/C=C(C)/C=C/C=C(C)/C=C/C1=C(C)C[C@@H](O)CC1(C)C [lutein],ratio of carotenoid to cholesterol at which complete disaggregation of the crystals was observed,[3],"1 to 20,000"
